Measurements: patent US20210115036A1, “AZAINDOLES AND METHODS OF USE THEREOF” (GOLDFINCH BIO, INC., priority 2017, published 2021)
Like-named read-outs stand apart in the source and are kept apart here.

Molecular target: T1, human TRPC5 (Homo sapiens, UniProt Q9UL62)
T1 construct: expressed in transfected cells; host or cells: HEK 293
T1 sequence (Q9UL62 1-973): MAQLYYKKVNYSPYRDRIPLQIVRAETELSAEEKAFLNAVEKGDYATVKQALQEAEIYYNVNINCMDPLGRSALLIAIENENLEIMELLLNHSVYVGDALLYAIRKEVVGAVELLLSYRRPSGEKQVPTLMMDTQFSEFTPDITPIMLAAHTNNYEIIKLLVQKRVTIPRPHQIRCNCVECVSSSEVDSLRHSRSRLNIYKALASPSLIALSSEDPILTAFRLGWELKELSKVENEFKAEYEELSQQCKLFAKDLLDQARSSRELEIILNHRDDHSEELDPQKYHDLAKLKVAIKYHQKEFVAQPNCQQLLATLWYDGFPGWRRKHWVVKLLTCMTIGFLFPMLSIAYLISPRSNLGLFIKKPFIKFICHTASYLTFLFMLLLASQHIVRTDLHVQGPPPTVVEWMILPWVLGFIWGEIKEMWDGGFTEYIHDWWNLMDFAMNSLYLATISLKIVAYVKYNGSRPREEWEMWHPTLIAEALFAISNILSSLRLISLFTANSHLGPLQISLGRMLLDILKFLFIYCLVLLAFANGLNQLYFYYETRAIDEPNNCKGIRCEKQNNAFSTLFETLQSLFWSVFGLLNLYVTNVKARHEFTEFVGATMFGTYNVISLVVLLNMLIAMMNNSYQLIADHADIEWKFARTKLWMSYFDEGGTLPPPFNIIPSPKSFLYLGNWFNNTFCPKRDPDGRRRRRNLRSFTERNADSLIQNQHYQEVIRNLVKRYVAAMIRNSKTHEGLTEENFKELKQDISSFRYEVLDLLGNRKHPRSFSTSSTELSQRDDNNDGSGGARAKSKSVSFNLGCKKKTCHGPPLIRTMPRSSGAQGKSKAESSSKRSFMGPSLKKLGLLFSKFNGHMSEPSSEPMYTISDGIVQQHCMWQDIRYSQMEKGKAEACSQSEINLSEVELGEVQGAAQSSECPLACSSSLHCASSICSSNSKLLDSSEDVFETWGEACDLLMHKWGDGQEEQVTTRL
Assay: Automated patch clamp assay (QPatch), current block after stimulation with rosiglitazone
Type: cell-based
Settings: HEK293 cells overexpressing TRPC5, whole cell automated patch
Procedure: HEK 293 cells expressing human TRPC5 were harvested, re-suspended in serum free medium, and added to the automated platform and used within 2-3 hours. Internal and external physiological solutions were freshly prepared prior to the assay. The external solution contained: 145 mM NaCl, 4 mM KCl, 2 mM CaCl2), 1 mM MgCl2, 10 mM HEPES, 10 mM glucose, pH 7.4 with NaOH and 300 mOsm/L. The internal solution contained 120 mM L-aspartic acid, 120 mM CsOH.H2O, 20 mM CsCl, 2 mM MgCl2, 8.8 mM CaCl2), 10 mM EGTA, 10 mM HEPES, 10 mM Glucose, 0.1 mM GTP and 2 mM Na2ATP; pH 7.2 with CsOH and 290 mOsm/L. The free internal Ca2+ concentration was buffered to 1 μM.
The automated electrophysiological platform QPatch 16 from Sophion (Denmark) was used to carry out the compounds profiling. The series resistance and quality of seals were continuously monitored during the experiments. Data was analyzed using Sophion QPatch assay software 5.6 (Odense). IC50 values were calculated using a least squares regression algorithm (Hill equation).
To monitor the ion currents, a voltage ramp from −100 mV to +100 mV, over 300 ms, was applied every 10 seconds, from a holding potential of −60 mV.
After recording for a minimum of 60 seconds control period, Rosiglitazone (30 uM), was applied to activate the channel.

[1] = 80 mV, 1-substituted 7-azaindoles, read-out: TRPC5 IC50 80 mV
[2] = 100 mV, 1-substituted 7-azaindoles, read-out: TRPC5 IC50 100 mV
[3] = 100 mV, 7-substituted 7-azaindoles, read-out: TRPC5 IC50 100 mV

IC50 [1] [µM] | IC50 [2] [µM] | IC50 [3] [µM] | Structure (SMILES)
> 30 |  |  | Cc1ccc2cc(C(C)(C)C)n(Cc3ccccc3)c2n1
 |  | 8.1 | CC(C)(C)c1cc2cccn(Cc3ccc(Cl)cc3)c-2n1 [drawing 127]
> 30 | > 30 |  | CC(C)(C)c1cc2cc(OCCCO)cnc2n1Cc1ccccc1
 |  | 14.4 | CC(C)(C)c1cc2cccn(Cc3cccnc3)c-2n1 [drawing 134]
 |  | 8.57 | COc1cccc(Cn2cccc3cc(C(C)(C)C)nc2-3)c1 [drawing 128]
> 30 |  |  | Cc1ccnc2c1cc(C(C)(C)C)n2Cc1ccccc1
 |  | 14 | CC(C)(C)c1cc2cccn(Cc3cccnc3)c-2n1 [drawing 133]
 |  | 6.02 | CC(C)(C)c1cc2cccn(Cc3ccc(Cl)cc3)c-2n1 [drawing 125]
 |  | 10.4 | Cn1cc(Cn2cccc3cc(C(C)(C)C)nc2-3)c(C(F)(F)F)n1
> 30 |  |  | COc1cc(Cl)ccc1Cn1c(C(C)(C)C)cc2cccnc21
> 30 | > 30 |  | COc1cccc(Cn2c(C(C)(C)C)cc3cccnc32)c1
 |  | > 30 | CC(C)(C)c1cc2cccn(Cc3ccncc3)c-2n1
> 30 |  |  | CC(C)(C)c1cc2cccnc2n1Cc1ccc(Cl)cc1
 |  | 12.2 | Cn1nc(C(F)(F)F)cc1Cn1cccc2cc(C(C)(C)C)nc1-2
 |  | 15.6 | Cc1noc(C)c1Cn1cccc2cc(C(C)(C)C)nc1-2
 |  | 24.5 | CC(C)(C)c1cc2cccn(C[C@H]3CC[C@H](C)CC3)c-2n1 [drawing 138]
> 30 | > 30 |  | COC(C)(C)c1cc2cccnc2n1Cc1ccccc1
> 30 | > 30 |  | CC(C)(C)c1cc2cccnc2n1Cc1cccnc1
 |  | 10.2 | COc1cccc(Cn2cccc3cc(C(C)(C)C)nc2-3)c1 [drawing 130]
> 30 | > 30 |  | COc1ccc(Cn2c(C(C)(C)C)cc3cccnc32)cc1
> 30 |  |  | CC(C)(C)c1cc2ccc(OCCO)nc2n1Cc1ccccc1
 |  | 5.47 | COc1ccc(Cn2cccc3cc(C(C)(C)C)nc2-3)cc1
 |  | 7.64 | CC(C)(C)c1cc2cccn(Cc3cncc(F)c3)c-2n1
 |  | 22.2 | CC(C)(C)c1cc2cccn(C[C@H]3CC[C@H](C)CC3)c-2n1 [drawing 137]
3.51 |  |  | CC(C)(C)c1cc2cccnc2n1Cc1ccccc1 [drawing 63]
 |  | 9.79 | Cn1cc(Cn2cccc3cc(C(C)(C)C)nc2-3)cn1
7.07 |  |  | CC(C)(C)c1cc2cccnc2n1Cc1ccccc1 [drawing 65]
 |  | 17.6 | Cc1nn(C)cc1Cn1cccc2cc(C(C)(C)C)nc1-2

Continued, compound first:

Structure (SMILES) | IC50 [1] [µM] | IC50 [2] [µM] | IC50 [3] [µM]
OCCc1cc2cccnc2n1Cc1ccccc1 | > 30 | > 30 | 
Cc1nn(C)cc1Cn1c(C(C)(C)C)cc2cccnc21 | > 30 | > 30 | 
CC(C)(C)c1cc2cccnc2n1CCOc1ccccc1 | > 30 |  | 
Cn1cc(Cn2c(C(C)(C)C)cc3cccnc32)cn1 | > 30 | > 30 | 
CC(C)(O)Cc1cc2cccnc2n1Cc1ccccc1 | > 30 | > 30 | 
CC(C)(O)c1cc2cccnc2n1Cc1ccccc1 [drawing 80] | > 30 |  | 
CC(C)(C)c1cc2cccnc2n1Cc1ccc(Cl)cn1 | > 30 |  | 
CC(C)(O)c1cc2cccnc2n1Cc1ccccc1 [drawing 81] |  | > 30 | 
CC(C)(C)c1cc2cccnc2n1CCCc1ccccc1 | > 30 |  | 
Clc1ccc(Cn2c(CN3CCCC3)cc3cccnc32)cc1 | 23.6 | 25.2 | 
C[C@H](c1ccccc1)n1c(C(C)(C)C)cc2cccnc21 | > 30 | > 30 | 
CCN(CC)Cc1cc2cccnc2n1Cc1ccccc1 | 6.24 | 4.19 | 
CC(=O)N1CCC(Cn2c(C(C)(C)C)cc3cccnc32)CC1 | > 30 |  | 
CC(C)(C)c1cc2cccnc2n1Cc1ccc(Cl)cc1C#N | > 30 |  | 
CC(C)(C)c1cc2cccnc2n1Cc1cncc(F)c1 | > 30 | > 30 | 
CC(c1ccccc1)n1c(C(C)(C)C)cc2cccnc21 (stereo not drawn) | > 30 |  | 
CN(C)Cc1cc2cccnc2n1Cc1ccccc1 | 18.3 | 21.6 | 
OCc1cc2cccnc2n1Cc1ccccc1 | > 30 | > 30 | 
CC(C)Cc1cc2cccnc2n1Cc1ccccc1 [drawing 73] |  | > 30 | 
CC(C)(C)c1cc2cccnc2n1Cc1ccncc1 | > 30 | > 30 | 
Cc1cc2cccnc2n1Cc1ccccc1 | > 30 |  | 
Cn1cc(Cn2c(C(C)(C)C)cc3cccnc32)c(C(F)(F)F)n1 | > 30 | > 30 | 
CC(C)(C)c1cc2cccnc2n1CC1CCCCC1 | > 30 |  | 

Structure (SMILES) | IC50 [1] [µM] | IC50 [2] [µM] | IC50 [3] [µM]
CN1CCC(Cn2c(C(C)(C)C)cc3cccnc32)CC1 | > 30 |  | 
CC(C)(C)Cc1cc2cccnc2n1Cc1ccccc1 | > 30 | > 30 | 
Cc1ccc2cc(C(C)(C)C)n(C(=O)c3ccccc3)c2n1 | > 30 |  | 
Cn1nc(C(F)(F)F)cc1Cn1c(C(C)(C)C)cc2cccnc21 | 19.6 | 19.1 | 
CC(C)(C)c1cc2cccnc2n1CCc1ccccc1 | > 30 |  | 
CC(C)(C)c1cc2cccnc2n1CC1CCOCC1 | > 30 |  | 
c1ccc(Cn2c(CN3CCCC3)cc3cccnc32)cc1 | 17 | 16.6 | 
Cc1ncc(Cn2c(C(C)(C)C)cc3cccnc32)cn1 | > 30 |  | 
COC(C)(C)Cc1cc2cccnc2n1Cc1ccccc1 | 13.8 | 8.52 | 
CC(C)(C)c1cc2ccc(OCCCO)nc2n1Cc1ccccc1 | > 30 |  | 
CC(C)(C)c1cc2cccnc2n1CC1CCN(S(C)(=O)=O)CC1 | > 30 |  | 
CC(C)Cc1cc2cccnc2n1Cc1ccccc1 [drawing 72] | > 30 |  | 
CC(C)(C)c1cc2cccnc2n1C[C@H]1CC[C@H](C)CC1 [drawing 112] | > 30 |  | 
Cc1noc(C)c1Cn1c(C(C)(C)C)cc2cccnc21 | > 30 | > 30 | 
CC(C)(C)c1cc2cccnc2n1CC1CCNCC1 | > 30 |  | 
COCCc1cc2cccnc2n1Cc1ccccc1 | > 30 | > 30 | 
Cc1cc2cccnc2n1Cc1ccc(Cl)cc1 | > 30 |  | 
C[C@@H](c1ccccc1)n1c(C(C)(C)C)cc2cccnc21 | > 30 | > 30 | 
CN(C)CCc1cc2cccnc2n1Cc1ccccc1 | > 30 | > 30 | 
CC(C)(C)c1cc2cccnc2n1CC1CCN(Cc2ccccc2)CC1 | > 30 |  | 
CC(C)(C)c1cc2c(OCCCO)ccnc2n1Cc1ccccc1 | > 30 | > 30 | 
CC(C)(C)c1cc2cccnc2n1C[C@H]1CC[C@H](C)CC1 [drawing 113] |  | > 30 | 
